Here are results for six molecules from ChEMBL document CHEMBL1201862, “PubChem BioAssay data set” (2004).

What all share (experiment): growth of human tumour cells (NCI), 48 h
For assay [1], the system named is NCI/ADR-RES.
For assay [2], the system named is ACHN.
The test system of assay [3] is HCT-116.
Assay [4] concerns SNB-19.
Assay [5] has as its system OVCAR-3.
Assay [6] deals with NCI-H460.
Assay [7] deals with SF-539.
Assay [8] deals with SF-295.
Assay [9] deals with M14.
Assay [10] has as its system MDA-N.
Assay [11] concerns KM12.
Assay [12] concerns HOP-62.
For assay [13], the system named is IGROV-1.
Assay [14] deals with A549.
In assay [15] the test system is Malme-3M.
Assay [16] has as its system HL-60.
Assay [17] relates to U-251.
Assay [18] relates to TK-10.
The test system of assay [19] is Hs-578T.
Assay [20] relates to OVCAR-8.

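Following 48 hours of exposure in 96-well plates, responses at five concentrations were used to interpolate endpoints linearly. GI50 marks 50% less growth.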 Active and inactive are the calls of the source. No stated cut-off is given here; in the data, active = GI50 up to about 1.1 µM and inactive = higher.

In the case of `Cc1cc(O)c2c(c1)CC(O)C1=C2C(=O)c2c(O)ccc(OC3CC(O)C(OC4CC(OC5CCC(O)C(C)O5)C(O)C(C)O4)C(C)O3)c2C1=O` (stereo not given), the GI50 in assay [1] was 2.93 µM (inactive); in assay [2], 1.58 µM (inactive); in [3], 1.75 µM (inactive); in assay [4], 1.6 µM (inactive); in [5], 0.662 µM (active); in [6], 2.16 µM (inactive). Moreover, the GI50 in [7] is 1.85 µM (inactive); in assay [8] it was 2.34 µM (inactive); in assay [9] it was 1.5 µM (inactive); in [10] it was 1.84 µM (inactive); in assay [11] it was 1.74 µM (inactive); in [12], 1.59 µM (inactive). Besides, the GI50 in assay [13] is 1.47 µM (inactive); in assay [14], 2.33 µM (inactive); in [15], 0.789 µM (active); in assay [16] it was 0.386 µM (active); in [17], 1.32 µM (inactive); in assay [18] it was 2.17 µM (inactive). Further, the GI50 in [19] is 2.62 µM (inactive); in [20], 1.65 µM (inactive).

Turning to `O=C1C=C(Nc2ccc(Br)cc2)c2ccccc2/C1=N/O`, the GI50 in assay [1] is 8.67 µM (inactive); in assay [2], 7.31 µM (inactive); in [3], 11.4 µM (inactive); in assay [4], 2.5 µM (inactive); in assay [5], 7.35 µM (inactive); in assay [6], 2.3 µM (inactive). For the same molecule, the GI50 in [7] was 9.48 µM (inactive); in assay [8] it was 1.54 µM (inactive); in assay [9], 1.63 µM (inactive); in assay [10] it was 1.89 µM (inactive); in assay [11], 2.5 µM (inactive); in assay [12] it was 2.78 µM (inactive). In addition, the GI50 was 32.6 µM (inactive) in [13]; 1.98 µM (inactive) in assay [14]; 10.2 µM (inactive) in assay [15]; 13.2 µM (inactive) in assay [16]; 4.93 µM (inactive) in assay [17]; 9.1 µM (inactive) in assay [18]. Also, the values for the GI50 in [19] and in assay [20] were 3.2 µM (inactive) and 12.1 µM (inactive), respectively.

Turning to `CCN(CC)CCNC(=O)c1cn2c(ccc3sc4ccccc4c(=O)c32)n1`, the GI50 in [1] is 11.2 µM (inactive); in [2], 3.64 µM (inactive); in [3], 5.97 µM (inactive); in assay [4] it was 11.5 µM (inactive); in assay [5], 12.8 µM (inactive); in assay [6], 1.03 µM (active). Further, the GI50 is 10.8 µM (inactive) in [7]; 10.5 µM (inactive) in assay [8]; 15.1 µM (inactive) in assay [9]; 14.1 µM (inactive) in [10]; 12.2 µM (inactive) in assay [11]; 5.96 µM (inactive) in assay [12]. For the same molecule, the GI50 in assay [13] was 5.38 µM (inactive); in assay [14], 4.36 µM (inactive); in [15], 11.6 µM (inactive); in [16], 5.26 µM (inactive); in assay [17] it was 13.7 µM (inactive); in [18], 14.4 µM (inactive). Further, the GI50 in assay [19] is 15.3 µM (inactive); in assay [20], 12.3 µM (inactive).

Regarding `Clc1cc(OC2C3CC4CC(C3)CC2C4)nc(Cl)n1` (stereo not given), the GI50 in assay [1] was 31.7 µM (inactive); in [2] it was 17.7 µM (inactive); in assay [3], 14.3 µM (inactive); in [4], 36.4 µM (inactive); in assay [5], 18.1 µM (inactive); in assay [6], 17.7 µM (inactive). The GI50 in [7] was 20.7 µM (inactive); in [8], 18 µM (inactive); in assay [9] it was 16.2 µM (inactive); in [10] it was 18.8 µM (inactive); in assay [11], 20.8 µM (inactive); in assay [12], 25.9 µM (inactive). Also, the GI50 is 10.6 µM (inactive) in [13]; 29.6 µM (inactive) in assay [14]; 14.9 µM (inactive) in [15]; 3.08 µM (inactive) in [16]; 17 µM (inactive) in [17]; 30.7 µM (inactive) in [18]. In addition, the figures for the GI50 in assay [19] and in assay [20] were 18.9 µM (inactive) and 26.1 µM (inactive), respectively.

Consider `COC(=O)C1C(=O)C(C(=O)OC)C2CCC1N2C` (stereo not given), for which the GI50 in assay [1] was 48.6 µM (inactive); in assay [2] it was 41 µM (inactive); in assay [3], 21.5 µM (inactive); in [4], > 100 µM (inactive); in [5], 18.3 µM (inactive); in assay [6] it was 48.3 µM (inactive). Also, the GI50 in assay [7] is 33.5 µM (inactive); in assay [8], > 100 µM (inactive); in assay [9], 29.8 µM (inactive); in assay [10], 23.8 µM (inactive); in [11] it was > 100 µM (inactive); in [12], 36.2 µM (inactive). The GI50 is 22.9 µM (inactive) in assay [13]; > 100 µM (inactive) in assay [14]; 20.2 µM (inactive) in [15]; 19.9 µM (inactive) in assay [16]; 56.1 µM (inactive) in assay [17]; 62.4 µM (inactive) in assay [18]. The GI50 was 52.2 µM (inactive) in [19] and 27.9 µM (inactive) in assay [20].

As for `Cc1nc2ccc(S(=O)(=O)Nc3ccc(Cl)cc3)cc2c(=O)n1NC(=O)CNc1ccc(Cl)cc1`, the GI50 in assay [1], in assay [2], in assay [3], in assay [4], in [5] and in assay [6] was > 100 µM (inactive) each time. In addition, the GI50 in [7] was > 100 µM (inactive); in assay [8], > 100 µM (inactive); in assay [9], > 100 µM (inactive); in [10], > 100 µM (inactive); in [11] it was 64 µM (inactive); in assay [12] it was > 100 µM (inactive). Further, the GI50 in assay [13], in [14], in assay [15], in assay [16], in [17] and in assay [18] was > 100 µM (inactive) in each case. The GI50 in assay [19] and in assay [20] was > 100 µM (inactive) in each case.
